Reference: PMC12505902, “Inhibitors of trehalose-6-phosphate synthase activity in fungal pathogens compromise thermal tolerance pathways” (mBio, 2025)
Like-named read-outs stand apart in the source and are kept apart here.

Experiments:
[1] = tested on: C. deneoformans (JEC21); test: MIC dose-response assay in YPD; format: cell-based; settings: Cryptococcus deneoformans
Description: Fig 4 4456dh inhibits the growth of Candida and Cryptococcus species. Two-fold dose response assays were performed against (A) C. albicans at 42°C and C. auris at 39°C, (B) C. glabrata at 42°C, and (C) C. neoformans, C. deneoformans, and C. gattii at 37°C. 4456dh was administered at the concentrations indicated. Cultures were grown in YPD at the listed temperatures for 48 hours for Candida species and 72 hours for Cryptococcus species. Experimental temperatures reflect the temperatures at which the fungi experience heat stress. Left: relative growth of treated samples was calculated by averaging technical triplicates and normalizing the OD600 of each treated well to the average OD600 of the untreated WT controls, after the absorbance due to the compound was subtracted. The MIC80 values, calculated based on the OD600 values, are indicated in the white text on each heat map. Right: representative spot assays show the ability of cells to grow after exposure to 4456dh and indicate fungicidal activity of 4456dh. […]
(§1) 124 technical replicates. Growth, as determined by a reading of absorbance at 600 nm, was
(§2) 125 normalized to untreated controls and was corrected for the absorbance of 4456dh in the YPD […]
(§3) 129 overnight cultures was quantified by measuring the OD600 and corrected for the background
(§4) 130 absorbance of the medium. Antifungal potency for 4456dh was assessed by minimum inhibitory […]
137 replicates. Growth, as determined by a reading of absorbance at 600 nm, was normalized to
138 untreated controls and was corrected for the absorbance of 4456dh in the YPD medium. […]
139 minimum inhibitory concentration causing 80% growth reduction, or MIC80, was determined based […]
157 Optical density (OD600) was determined with an Infinite PRO plate reader ( Tecan). […]

[2] = tested on: trehalose content of wild-type C. albicans; test: Trehalose measurement (colorimetric glucose assay after trehalase); format: cell-based; settings: 0.5 mM 4456dh
Description: Given that 4456dh inhibits the activity of CaTps1 and CnTps1 in vitro and has bioactivity against multiple Candida and Cryptococcus species, we tested whether 4456dh affects trehalose production in cells. We quantified trehalose levels in cells treated with 4456dh at sub-lethal concentrations as determined by the MIC assays using a colorimetric spectrophotometric assay. We measured trehalose production in wild-type C. albicans at 30°C and 42°C, in the presence and absence of 4456dh. […] However, we observed a significant increase in trehalose content when C. albicans was exposed to high temperature stress (P < 0.0001; Fig. 5A).
Fig 5 4456dh treatment results in reduced trehalose accumulation and a decrease in Tps1-dependent virulence factors. […] Trehalose was measured using a colorimetric glucose assay after treatment of cultures with trehalase. […] Cells were harvested, stained in India Ink, and analyzed using differential interference contrast imaging. […]
as §1, §2, §3, §4

Cn1cc(-c2csc(NC(=O)Cc3ccccn3)n2)cn1 [Compound 4456dh]
MIC80 [1]: > 13000 µM
MIC80 ([1]; 37°C, YPD, 72 hours, read-out: MIC80): 3000 µM
MIC80 ([1]; Supplemental Table 5, This publication, read-out: MIC80): 1190 µg/mL
change in trehalose content ([2]; 30°C): no significant change detected
change in trehalose content ([2]; 42°C): approximate twofold decrease
